Patent publication US20250002527A1, “STEROID COMPOUND AND CONJUGATE THEREOF” (DUALITY BIOLOGICS (SUZHOU) CO., LTD., priority 2021, published 2025)
Each block holds one compound with its values, some of them ahead of it.

Experiments:
Format in all cases: cell-based
glucocorticoid receptor [1] = molecular target: T1, glucocorticoid receptor (Homo sapiens, UniProt P04150); assay: Measurement 1 of glucocorticoid receptor reporter gene GRE activity; conditions: HEK293 transfected with pGL5 and pBIND-GR, 24 hours
T1 construct: expressed in transfected cells; host or cells: HEK293
T1 sequence (P04150 1-777): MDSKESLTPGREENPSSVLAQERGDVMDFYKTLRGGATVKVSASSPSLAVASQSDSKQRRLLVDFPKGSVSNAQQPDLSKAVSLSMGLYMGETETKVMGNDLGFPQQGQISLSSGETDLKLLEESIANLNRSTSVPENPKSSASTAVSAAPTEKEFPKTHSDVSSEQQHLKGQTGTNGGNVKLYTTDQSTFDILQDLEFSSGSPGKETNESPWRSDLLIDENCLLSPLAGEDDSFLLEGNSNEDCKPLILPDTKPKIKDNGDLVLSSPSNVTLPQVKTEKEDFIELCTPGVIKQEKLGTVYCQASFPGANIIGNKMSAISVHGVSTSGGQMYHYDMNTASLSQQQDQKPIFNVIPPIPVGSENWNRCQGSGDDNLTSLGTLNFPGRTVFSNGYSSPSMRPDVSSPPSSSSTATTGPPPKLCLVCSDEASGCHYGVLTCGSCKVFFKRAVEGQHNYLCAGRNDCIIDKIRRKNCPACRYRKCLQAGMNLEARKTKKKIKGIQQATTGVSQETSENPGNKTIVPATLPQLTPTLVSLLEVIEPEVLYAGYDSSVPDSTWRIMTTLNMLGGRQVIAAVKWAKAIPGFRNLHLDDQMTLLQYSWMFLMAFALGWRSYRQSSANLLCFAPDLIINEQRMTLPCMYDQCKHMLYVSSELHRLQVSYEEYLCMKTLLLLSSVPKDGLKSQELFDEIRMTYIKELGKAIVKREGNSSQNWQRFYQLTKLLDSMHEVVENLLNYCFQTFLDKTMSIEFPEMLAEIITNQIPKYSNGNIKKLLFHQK
Protocol: (§1) HEK293 cells were cultured in DMEM+10% FBS medium in a carbon dioxide incubator humidified at 37° C. at 5% carbon dioxide.
(§2) The prepared transfection mixtures were added to 10 mL of the cell density-adjusted resuspension, mixed well by turning the mixtures upside down, and seeded into a 96-well plate at a volume of 100 μL/well.
(§3) The test plate was detected using the Dual-Glo Luciferase Assay System kit from Promega, and the fluorescence signal of Firefly Luciferase and the fluorescence signal of Renilla Luciferase were read using Enspire, respectively.
The final measurement value was a normalized value “F/R” obtained by dividing the Firefly Luciferase fluorescent signal by the Renilla Luciferase fluorescent signal.
The data were copied and pasted into Excel, and the activation rate was obtained through an equation.
The data were imported into MS Excel and subjected to curve fitting by using XLFit excel add-in version 5.4.0.8 to obtain an EC50 value.
(§4) Y is the agonism and X is the concentration of the compound.

ERα = molecular target: T2, ERα (Homo sapiens, UniProt P03372); assay: ERα luciferase reporter gene experiment; conditions: HEK293 transfected with pBIND-ERα
T2 sequence (P03372 311-547 limits assumed): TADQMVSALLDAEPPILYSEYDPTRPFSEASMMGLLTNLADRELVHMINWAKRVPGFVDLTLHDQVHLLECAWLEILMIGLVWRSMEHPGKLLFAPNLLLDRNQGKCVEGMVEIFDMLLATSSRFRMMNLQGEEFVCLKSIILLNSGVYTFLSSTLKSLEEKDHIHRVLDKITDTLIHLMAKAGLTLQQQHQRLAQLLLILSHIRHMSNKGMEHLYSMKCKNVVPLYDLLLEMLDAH
Protocol: as §1
(§5) • 1) HEK293 cells were trypsinized, and the HEK293 cell resuspension was adjusted to 200,000 cell/mL in medium (96 well plate: 100 μL/well). • 2) Transfection reagent mixtures were prepared according to the table below, mixed well and left at room temperature for 20 minutes.
as §2, with “• 3) The” for “The”, “μL/well. • 4) The 96-well plate was incubated in a humidified incubator at 37° C. and 5% carbon dioxide for 24 hours.” for “μL/well.”
as §3, §4

MR = molecular target: T3, MR (Homo sapiens, UniProt P08235); assay: MR luciferase reporter gene experiment; conditions: HEK293 transfected with pBIND-MR
T3 construct: expressed in transfected cells; host or cells: HEK293
T3 sequence (P08235 1-984): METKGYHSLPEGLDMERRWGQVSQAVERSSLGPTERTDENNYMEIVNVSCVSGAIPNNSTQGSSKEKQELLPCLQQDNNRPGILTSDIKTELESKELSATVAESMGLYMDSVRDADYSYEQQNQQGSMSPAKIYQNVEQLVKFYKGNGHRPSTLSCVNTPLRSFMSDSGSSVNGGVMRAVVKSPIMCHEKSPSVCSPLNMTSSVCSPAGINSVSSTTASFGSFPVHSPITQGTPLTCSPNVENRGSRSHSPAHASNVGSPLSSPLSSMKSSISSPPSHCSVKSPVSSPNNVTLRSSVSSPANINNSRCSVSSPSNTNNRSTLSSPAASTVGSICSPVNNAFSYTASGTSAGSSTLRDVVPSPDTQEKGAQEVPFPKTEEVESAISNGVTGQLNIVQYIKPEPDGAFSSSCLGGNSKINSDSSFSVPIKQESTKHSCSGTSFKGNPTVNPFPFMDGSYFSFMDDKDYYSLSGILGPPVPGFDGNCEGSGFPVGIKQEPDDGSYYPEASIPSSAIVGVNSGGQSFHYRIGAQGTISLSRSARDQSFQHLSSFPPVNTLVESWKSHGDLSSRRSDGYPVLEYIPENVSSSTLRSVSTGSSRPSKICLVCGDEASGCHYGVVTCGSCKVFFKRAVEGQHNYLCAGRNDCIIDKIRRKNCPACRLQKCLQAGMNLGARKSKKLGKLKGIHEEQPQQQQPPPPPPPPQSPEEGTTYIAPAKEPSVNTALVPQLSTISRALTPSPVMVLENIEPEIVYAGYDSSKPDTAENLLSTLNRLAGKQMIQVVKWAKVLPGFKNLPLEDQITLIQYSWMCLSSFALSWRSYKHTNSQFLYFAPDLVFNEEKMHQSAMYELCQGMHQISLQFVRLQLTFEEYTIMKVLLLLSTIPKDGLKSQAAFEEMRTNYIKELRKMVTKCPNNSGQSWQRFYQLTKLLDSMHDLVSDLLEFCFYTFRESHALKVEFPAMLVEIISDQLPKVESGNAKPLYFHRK
Protocol: as §1, §5
as §2, with “• 3) The” for “The”, “μL/well. • 4) The 96-well plate was incubated in a humidified incubator at 37° C. and 5% carbon dioxide for 24 hours.” for “μL/well.”
as §3, §4

human PBMC cells = assay: IFN-α secretion from PBMC under R848 stimulation (compounds); conditions: R848 5 μM, 24 hours, mean ± standard deviation
Protocol: The compounds of the present application were tested for their inhibitory effect on the production of peripheral blood monocytes. The peripheral blood monocytes were treated in vitro with the ligand-drug conjugate at different concentrations, and IFNα and TNFα generated by the peripheral blood monocytes were quantitatively detected after a certain time. The compounds of the present invention were evaluated for in-vitro activity.
The cryopreserved human PBMC cells were resuspended in a complete medium and counted, and the cell suspension was adjusted to 2.5×10*6 cells/mL with the culture medium. After the suspension was centrifuged to collect the cells the next day, the cells were resuspended using fresh culture medium. Test compounds were diluted to 4-fold final concentration in cell culture medium, 50 μL of the compounds were added into a 96-well cell plate, and 100 μL of diluted cells ([…]) were added into each well of the 96-well plate containing the compounds, followed by addition of 50 μL R848 to a final concentration of 5 μM. The cell plate was incubated at 37° C. with 5% CO2 for 24 hours. The supernatant was collected, and the TNF-α and IFN-α concentration levels in the supernatant were detected using an ELISA kit.
50 μL of biotinylated antibody working solution was added into each well. After mixing well, the plate was covered with the plate-sealing membrane and incubated at room temperature for 3 hours. […] The procedure was repeated for 3 times. 100 μL of Streptavidin-HRP working solution was added into each well. The plate was covered with the plate-sealing membrane and incubated at room temperature for 20 minutes. The plate was washed for 3 times, 100 μL of TMB liquid was added into each well, and the plate was incubated for 25 minutes at room temperature (18-25° C.) in the dark. The reaction was stopped by adding 100 μL stop solution rapidly to each well. The reading at a wavelength of 450 nm was detected by an M2e instrument within 10 minutes after termination.
The contents of TNF-α and IFN-α were calculated from the OD450 values.

glucocorticoid receptor [2] = molecular target: T1, glucocorticoid receptor; assay: Measurement 2 of glucocorticoid receptor reporter gene GRE activity (HEK293 GRE cells); conditions: 24 hours

- EC50 (glucocorticoid receptor [1]): 1.42 nM
Compound: C[C@]12C=CC(=O)C=C1CC[C@@H]1[C@@H]2[C@@H](O)C[C@@]2(C)[C@H]1C[C@H]1O[C@H](c3ccc(Cc4ccc(CO)cc4)cc3)O[C@]12C(=O)CO [Compound 4S]

- EC50 (ERα): > 1000 nM
- EC50 (MR): > 1000 nM
Compound: C[C@]12C=CC(=O)C=C1CC[C@@H]1[C@@H]2[C@@H](O)C[C@@]2(C)[C@H]1C[C@H]1O[C@@H](c3ccc(Cc4cccc(CO)c4)cc3)O[C@]12C(=O)CO [Compound 3]

Compound: C[C@]12C=CC(=O)C=C1CC[C@@H]1[C@@H]2[C@@H](O)C[C@@]2(C)[C@H]1C[C@H]1O[C@@H](c3ccc(Cc4ccc(CO)c(N)c4)cc3)O[C@]12C(=O)CO [Compound 6]
- IFN-α secretion (pg/mL) from PBMC under R848 stimulation (human PBMC cells; compound 4 nM): 99.8 ± +5.7 pg/mL
- IFN-α secretion (pg/mL) from PBMC under R848 stimulation (human PBMC cells; compound 20 nM): 45.9 ± 45.9 pg/mL
- IFN-α secretion (pg/mL) from PBMC under R848 stimulation (human PBMC cells; compound 100 nM): 6.9 ± 6.9 pg/mL
- EC50 (glucocorticoid receptor [2]): 0.12 nM
